These results are taken from US5380834A, “Immuno-suppressive agent” (Ishihara Sangyo Kaisha Ltd., priority 1992, dated 1995).

The subject of one experiment is murine thymocytes. The experiment can be described thus: Effects on the mitogenic response by murine thymocytes (Con A stimulation, 3H-TdR uptake). It counts as cell-based, BALB/c murine. Particulars: Mus musculus, Thymocyte; BALB/c thymocytes, Con A 5 μg/ml, 48 hours, 3H-TdR uptake; read-out: IC50 value, a (mitogenic response of murine thymocytes).
For experiment [1], the system named is Carrageenan-induced acute inflammation in rats. The experiment can be described thus: Carrageenan-induced paw edema model (anti-inflammatory activity). It counts as in vivo, SD male rat. Particulars: 50 mg/Kg orally one hour before carrageenan, 3 hours, n=4; control 144 ± 8; P < 0.01 (No. 29), P < 0.05 (Nos. 1, 17). The procedure:
A test for an anti-inflammatory activity was conducted by means of carrageenan-induced paw edema model which is commonly used for evaluation of the effectiveness of a common anti-inflammatory agent (NSAID).
0.1 ml of a 1% λ-carrageenan solution was injected intradermally at the sole of the right paw of a SD male rat (six weeks old). Three hours later, the sole volumes of paws on both sides were measured, and the difference in the volume between the right paw and the left paw was taken as the degree of edema. The test compound was orally administered in an amount of 1 ml/100 g (body weight) one hour prior to the administration of carrageenan. To the control group, a physiological saline was administered in the same amount.
A general note: The carrageenan paw model is a standard test of acute inflammation.

Another experiment concerns murine bone mallow cells. The experiment can be described thus: Effects on the murine bone mallow cells (proliferation, 3H-TdR uptake). In kind it is cell-based, BALB/c mouse. Particulars: Mus musculus, bone marrow cells; 20% L929 culture supernatant, 48 hours, 3H-TdR uptake; Tables 12-15; read-out: IC50 value, c (murine bone mallow cells).
Experiment [2] has as its system murine mixed lymphocyte reaction (spleen cells of BALB/c and C57BL/6 mice). The experiment can be described thus: Effects on the murine mixed lymphocyte reaction (3H-TdR uptake). In kind it is cell-based. As to conditions: Mus musculus, BALB/c + C57BL/6 spleen cells, 48 hours, read-out: IC50 value, b (murine mixed lymphocyte reaction).

≈ marks a conversion by molar mass, not a printed value.

Regarding `O[C@H]1C=C[C@H]2CO[C@@H]1O2` [Compound 1, 1,6-anhydro-3,4-dideoxy-β-D-threo-hex-3-enopyranose], the IC50 was determined as 15 µg/mL (≈ 117 µM) in the experiment with murine thymocytes, 69 µg/mL (≈ 539 µM) in the experiment on murine bone mallow cells and 11 µg/mL in experiment [2]. The “Swelling of paw, Average ± SD” value in experiment [1] is recorded as 100 ± 33 × 10^-2 cm^3.

For the compound `O=C(O[C@H]1C=C[C@H]2CO[C@@H]1O2)c1ccco1` [Compound 17, 1,6-anhydro-3,4-dideoxy-2-O-(2-furancarbonyl)-β-D-threo-hex-3-enopyranose], the 50% inhibitory concentration (IC50) is 190 µg/mL (≈ 855 µM) in the experiment with murine thymocytes, 510 µg/mL (≈ 2300 µM) in the experiment on murine bone mallow cells and 270 µg/mL in experiment [2]. Also, the “Swelling of paw, Average ± SD” value in experiment [1] is 95 ± 26 × 10^-2 cm^3.

With `C#C[C@]1(O)C=C[C@H]2CO[C@@H]1O2` [Compound 29], the IC50 in the experiment on murine thymocytes is 35 µg/mL (≈ 230 µM); in the experiment on murine bone mallow cells it was greater than 1000 µg/mL; in experiment [2], greater than 1000 µg/mL. The “Swelling of paw, Average ± SD” value in experiment [1] is given as 97 ± 22 × 10^-2 cm^3.

In general, IC50 refers to the concentration needed to halve the response being measured.
